These results are taken from US20070244076A1, “Site and Rate Selective Prodrug Formulations of D609 with Antioxidant and Anticancer Activity” (priority 2003, published 2007).

Series [1] relates to leukemia cells (U937, Jurkat, SupT13 and A20), solid tumor cells (HT1080). Description: MTT cell viability, leukemia and solid tumor cell panel. The series is classed as cell-based. The settings on record: 48 hours. The text has this:
The results, shown in FIG. 7A and FIG. 7B, are expressed as a percent of vehicle control and presented as means±SEM (n=3).

The next series concerns A20 cells. The experiment in a line: MTT cell viability and growth, A20 cells.
In series [2] the test system is ceramide and DAG levels in U937 cells. The experiment in a line: Ceramide and DAG levels in U937 cells by DAG kinase assay. Type of series: cell-based, Human. The settings on record: 2 hrs. On the procedure: To validate if inhibition of SMS may mediate D609-induced tumor cell death, the cellular level of SMS activity in U937 cells treated with vehicle or D609 were studied. […] NBD-C6-ceramide and PC were incubated with the cell lysates containing 50 μg proteins for 30 min at 30° C. The formation of NBD-C6-sphingomyelin was analyzed by TLC and quantified by determination of the fluorescent intensity of NBD-C6-sphingomyelin using a phosphoimager. The results, shown in FIGS. 10B-10D, are expressed as percent of the control cultures with vehicle and presented as means±SEM (n=3). […] The levels of ceramide (FIG. 10B) and DAG (FIG. 10C) were analyzed by the DAG kinase assay, normalized to the levels of cellular phospholipid and expressed as pmole/nmole phophate (pi) or the ratio of ceramide and DAG (FIG. 10D). The results represent means±SEM (n=3).

Series [3] in a line: Cyclic voltammetry, reducing power (E1/2) at physiological pH. The series is classed as physicochemical. Particulars: 2 mM in PBS (pH 7.4). On the procedure: D609 was dissolved in PBS (pH 7.4) at 2 mM concentration, and E1/2 was measured using a cyclic voltammetry apparatus (Model CV-2, from BAS, West Lafayette, 1N).

SMILES strings stand for the structures. Where “and” joins values, the source holds several entries; their conditions need not be identical. Equal values may be shown once.

Protocol for A20 cells: The cell viability was analyzed by MTT assay after A20 cells were cultured with vehicle or different concentrations of D609 for 48 hrs. […] A20 cells were untreated (Control), irradiated (IR 4 Gy), incubated with D609 alone, or treated with both D609 and IR. The cell viability and/or proliferation were measured by MTT assay at different times after the cells were placed into well of 96-well plate (2×10^4/0.2 ml/well). The results are expressed as means±SEM (n=3) (FIG. 13B).

Turning to `S=C([S-])OC1CC2CC1C1CCCC21.[K+]` (stereo not shown) [Prodrug D609, Tricyclodecan-9-yl-xanthogenate], in series [1], the cell viability result is “dose-dependent reduction in cell viability”. The LD50 result with A20 cells (48 hrs) is “about 106 μM and ~28.2 μg/ml”. Besides, the “response of A20 cells to IR” value in the series with A20 cells (IR 4 Gy) is on record as “enhanced their response to IR”. In series [2], the “level of DAG” value was “decrease in that of DAG”; the level of ceramide result is recorded as “increase in the level of ceramide”; the “ratio between ceramide and DAG” value is “dramatically elevated”. Besides, the E1/2 in series [3] amounted to 350 mV.
